# Measurements from US20160143867A1, “METHODS AND PHARMACEUTICAL COMPOSITIONS FOR TREATING CANCER” (INSERM (INSTITUT NATIONAL DE LA SANTÉ ET DE LA RECHERCHE …, priority 2013, published 2016).
# Test system: glioma-initiating cells (GICs)
# Experiment: Cell survival of GICs exposed to GHB
# Conditions: exposure of GICs to GHB
smiles,measurement,value
"O=C(O)CCCO [GHB, gamma-hydroxybutyrate]",cell survival,without affecting cell survival
